By melting point is commonly meant the temperature, or range, at which the solid turns liquid. In turn, `COc1ccc2sc(S(N)(=O)=O)cc2c1` registered a melting point of 125 to 127 °C.

`CCOC(=O)COc1ccc(NC(=O)c2cnc(NC(=N)N)s2)cc1` came in with a melting point of 218 °C. The compound `CC(=CCc1c(C)nc(N)nc1N)c1cc(Cl)ccc1Cl` came in with a melting point of 172 to 174 °C. In turn, `COc1ccc(-c2coc3cc(OCc4ccccc4)ccc3c2=O)cc1` showed a melting point of 181 to 183 °C. Next, `NC(=O)c1c(N)sc2ccccc2c1=O`: 277 to 279 °C; `Cc1cc(C#N)c(C)c(C(=O)Nc2ccc(F)cn2)n1`: 196 °C. Then `CN1C(C)(C)CC(O)C(O)C1(C)C` (stereo not given), with 78 °C; and `Cc1ccccc1-c1cn2ccc3ccccc3c2n1`, with 93 °C. In the case of `Cn1nc(-c2ncc(Cl)cc2F)c(C(F)F)c1OC(F)F`, the melting point lay in the range of 79 to 81 °C. Then `CCOC(=O)C1CCc2c(c3ccccc3n2C(=O)c2ccc(C)cc2)C1` (stereo not given), with 70 to 72 °C. As for `COc1ccc(C(=O)CN2CCN(c3cccccc3=O)CC2)cc1OC`, the melting point is 132 to 135 °C.

As to `O=S(=O)(c1ccc(Cl)cc1)c1ccc(Cl)s1`, the melting point came out at 108 °C. Then `O=C(O)c1ccccc1Oc1ccc(C(F)(F)F)cc1NS(=O)(=O)c1cc(C(F)(F)F)cc(C(F)(F)F)c1`, with 133 to 134 °C; and `Cc1cc(C(CC2CCCC2)c2ccc(S(C)(=O)=O)cc2)[nH]c1C(=O)O` (stereo not given), with 127 °C. With `CCc1ccc2oc(C(=O)Nc3ccc(-c4ccc(S(=O)(=O)NC(C(=O)O)C(C)C)cc4)cc3)c(C)c2c1OC(C)C` (stereo not given), the melting point lay in the range of 159 to 162 °C. Next, `CC1(C)CCOc2cc(C(=O)O)ccc21`: 173 to 174 °C; `CCCn1cc2c(C3C(=O)Nc4ccc(Br)cc43)nc(NCCCN(C)C)nc2n1` (stereo not given): 286 to 290 °C; `CCCOc1ccc(S(=O)(=O)Cl)cc1C(=O)O`: 121 to 124 °C. Regarding `Nc1nnc(CCCCCBr)s1`, the melting point was in the range of 128 to 130 °C.

As for `CNC1CCN(C(=O)CC2=C(n3nc(-c4c(-c5ccccc5)nn5ccccc45)ccc3=O)CCCC2)CC1`, the melting point fell in the range of 101 to 105 °C.

The compound `CC(C)CCc1c(-c2ccc(S(N)(=O)=O)c(F)c2)cnn(CC(F)(F)F)c1=O` gave a melting point of 153 to 156 °C.

Take `CN1CCCC1=NC(=O)Nc1c(Br)cc(Br)cc1Br`: the melting point is 165 to 168 °C. Then `O=C(CCC(=O)N1CCC[C@H]1C(=O)O)c1ccc(F)cc1`, with 127 to 129 °C; and `O=C1C(CCO)Oc2cc([N+](=O)[O-])ccc2N1Cc1ccccc1` (stereo not given), with 102 to 105 °C; and `COc1ccc(-c2nc(C)cc(Cl)n2)cc1`, with 80 to 81 °C. Next, `CC(C(=O)O)c1ccc(-c2nc3ccccc3o2)c(F)c1` (stereo not given): 168 to 171 °C. Then `CC(=O)O[C@H]1C=C(Br)[C@H](O)[C@@H](Br)[C@@H]1O`, with 150 to 152 °C; and `Cc1cc2c(cc1C(C)SCC(=O)O)OCO2` (stereo not given), with 93.5 to 94.5 °C; and `COCCOc1ccc(/C=C/C(=O)NS(=O)(=O)c2ccccc2Cl)c(Oc2ncc(C(F)(F)F)cc2Cl)c1`, with 168 to 169 °C. Consider `COc1cc(-n2nnn(C)c2=O)c(Cl)cc1Cl`, for which the melting point is 80 to 81 °C. Then `O=[N+]([O-])c1ccccc1Oc1ccc(OCc2ccc(F)c(F)c2)cc1`, with 74 to 75 °C; and `COC(=O)/C=C/C(=O)OCC(=O)N1CCOCC1`, with 124 to 126 °C; and `CCCCC12CCC3C4=C(CCC3C1CCC2=O)CC(OC)=CC4` (stereo not given), with 124 to 128 °C.

Turning to `C=CC1(CC)OC(=O)c2ccc(Oc3ccc(C(F)(F)F)cc3Cl)cc21` (stereo not given), the melting point is 77 to 79 °C.

In turn, `CCNC1(C(N)=O)C=C2C(=Nc3ccccc32)C=N1` (stereo not given) gave a melting point of 233 to 236 °C. The compound `CNc1noc(C(C)c2cccc(C(=O)c3ccccc3)c2)n1` (stereo not given) came in with a melting point of 100 to 101 °C. For `CN(CCOC[C@@H]1CC(c2ccc(-c3ccc(N4C[C@H](Cn5ccnn5)OC4=O)cc3F)cn2)=NO1)CC(=O)O`, the melting point was in the range of 135 to 140 °C. Compound `CCc1cc(=O)c2ccc(O)cc2o1` registered a melting point of 189 °C. Then `CNC(=O)OC1CC2(CCN(CCCC(=O)c3ccc(F)cc3)C2)c2ccccc21` (stereo not given), with 167 to 169 °C; and `CCC(=O)C(CCCCCCOc1ccc(OC)cc1)C(=O)CC`, with 50 to 51 °C; and `COc1cc(COc2nn(-c3ccccc3)cc2Cn2cncn2)ccc1OCc1nc(-c2ccco2)oc1C`, with 149 to 150 °C.

Compound `Oc1ccnc(OC(F)F)c1` returned a melting point of 88.6 to 89.8 °C. Then `CC(C)N1C(=O)c2ccc(Cl)nc2C1=O`, with 122 to 123 °C; and `N=C(CC1=CCC=CC1)N1C[C@@H]2C(=O)CCC(c3ccccc3)(c3ccccc3)[C@@H]2C1` (racemic), with 190 °C. In turn, `COc1ccc(-c2c(Cl)c(CN3C(=O)CCC3=O)nc3sc4c(c23)CCN(C(C)=O)C4)cc1` had a melting point of 266 to 267 °C.

`C[C@@H]1C(=O)C[C@H]2C[C@@H]1OO[C@@]2(C)/C=C\c1ccc(C(C)(C)C)cc1` displayed a melting point of 101 °C. For the compound `CCNC(=O)c1c([Si](C)(C)C)sc2c1CCCC2`, the melting point was in the range of 107 to 112 °C. Then `CC(C)(C)c1ccc(C(=O)Nc2cn3cc(-n4ccnc4)ccc3n2)cn1`, with 242 to 245 °C; and `CCN(CC)C(C)(C)CNC1(c2ccccc2Cl)C(=O)Nc2ccc(Cl)cc21` (stereo not given), with 174 °C; and `Oc1ccc(OCCCCOc2ccc(O)cc2)cc1`, with 202 to 204 °C. Next, `C[C@@H](O)c1nccc(N2CCN(Cc3ccccn3)CC2)n1`: 68 to 70 °C; `COc1ccc(-c2oc3cc(OC)cc(O)c3c(=O)c2OC)cc1`: 143 to 145 °C; `CCCc1nc2c(N)nc3ccccc3c2n1CCCCCC(=O)OCC`: 112 to 113 °C. For `Cc1cc(N)nc(C)c1-c1ccc(Cl)cc1`, the melting point lay in the range of 148 to 152 °C. In turn, `O=C(O)c1ccc(Cc2cc3cc(Cl)ccc3n2S(=O)(=O)c2ccc3c(c2)OCCO3)s1` had a melting point of 196 °C. Then `N#Cc1ccc2nc3cscc3c(=O)n2c1`, with 233 to 234 °C; and `O=c1oc(OCc2ccccc2)c(Cl)c2ccccc12`, with 92 °C.

Consider `O=C(NO)c1ccc(C(=O)NOCc2cccc3ccccc23)cc1`, for which the melting point is 192 to 194 °C.

`CCC(=NOC)c1ccc(=O)[nH]c1CC` displayed a melting point of 120 to 125 °C. Then `Nc1c(Cl)cc(Nc2ncnc3cnc(N[C@H]4CC[C@H](C(=O)N5CCOCC5)CC4)nc23)cc1Cl`, with 204 to 207 °C. Next, `CC(C)(C)OC(=O)C[C@H](NC(=O)CNC(=O)c1csc(NC(=O)NCc2ccccc2)n1)C(=O)NCc1cccnc1`: 185 °C; `CCOC(=O)C(Cc1ccc(C(F)(F)F)cc1)C(=O)c1ccc(F)cc1` (stereo not given): 56 to 57 °C; `COc1cccc2c3c(cnc12)CCCN3c1ccccc1C`: 160 to 161 °C. Then `CCN(CC)C(=O)c1cc(-c2cccc([N+](=O)[O-])c2)c2sccc2c1`, with 106 °C; and `CC1(C)OC(c2ccc(S(C)(=O)=O)cc2Cl)=C(c2ccccc2)C1=O`, with 89 to 90 °C; and `CNC(=O)c1ccc(-c2ccc3nnn(Cc4ccc5ncccc5c4)c3n2)cc1`, with 220 to 222 °C. The compound `COc1ccc(-c2cnc3[nH]cc(C(=O)C(C)(C)C)c3n2)cc1N1CCCC1` gave a melting point of 211 to 213 °C.

In the case of `Nc1cc(Cl)c(Br)cc1C(=O)O`, the melting point was in the range of 228 to 230 °C.

Turning to `COC(=O)c1cn(Cc2ccccc2F)cn1`, the melting point lay in the range of 87 to 89 °C. Compound `CC(C)Cc1ccc(C(=O)O)cc1C#N` came in with a melting point of 118 °C. `CCOC(=O)c1cnc2nn(C)cc2c1O` gave a melting point of 222 to 224 °C. Next, `CCC(CC)(c1ccc(F)cc1)c1c[nH]c2c(NS(C)(=O)=O)cccc12`: 137 to 138 °C; `O=C(Cl)c1cc(C#Cc2ccccc2)c(C(=O)Cl)cc1C#Cc1ccccc1`: 174 to 180 °C. Next, `CN(C)c1ccc(C2(c3ccc(N(C)C)cc3N(C)C)OC(=O)c3ccc(N(C)C)cc32)c(N(C)C)c1`: 188 to 192 °C; `CCc1cc(C#N)ccc1N=C1OCC(C)(C)N1C1CCCC1`: 112 to 114 °C. The compound `CN(C)CCC1CSc2c(C(=O)O)c(=O)c3cc(F)c(N4CCN(C)CC4)cc3n21` (stereo not given) showed a melting point of 221 to 223 °C. Next, `O=C(O)c1ccc2nc3n(c(=O)c2c1)CCCC3=Cc1ccccc1`: 288 to 290 °C.

`COC(=O)C=CC=Cc1ccccc1CNC(=O)OC(C)(C)C` gave a melting point of 96 to 97.5 °C.

With `CCOC(=O)CCc1cn(Cc2ccccc2)nc1O`, the melting point was 75 to 76 °C.

Turning to `O=C(Nc1ccc(F)c(C(F)(F)F)c1)c1cccc2cc(OS(=O)(=O)C(F)(F)F)ccc12`, the melting point is 171 to 172 °C. With `CCn1c(Cl)c(C=O)c(=O)n(CC)c1=NO`, the melting point was in the range of 115 to 116 °C. Then `O=C(O)Cc1cc(N=Nc2ccc(S(=O)(=O)Nc3ccccn3)cc2)ccc1O`, with 135 °C; and `CCCCCCN=C1SC(=CC(=O)O)C(=O)N1CCCCCC`, with 66 to 69 °C; and `CCCCc1nc2cccc(C(=O)OC)c2n1Cc1ccc(-n2cccc2C#N)cc1`, with 128 to 129 °C. As to `NCCC(O)(c1ccc(-c2ccccc2)cc1)c1ccc(-c2ccccc2)cc1`, the melting point was in the range of 176 to 178 °C. Then `CCN1CC(C(=O)N2CCOCC2)Cc2cccc(CSc3nc4ccccc4[nH]3)c21` (stereo not given), with 194 °C; and `CCCn1c(=O)c2c(NC)n(C(=O)C(C)C)nc2n(Cc2cccc(Cl)c2)c1=O`, with 154 to 156 °C.

As to `COc1cc2c(cc1C(F)(F)F)N(C(=O)Nc1cccs1)CC2`, the melting point is 240 to 244 °C. Next, `C[Si](C)(C)C#Cc1cc(F)cnc1N`: 65 °C; `CCCCCC(=O)Nc1ccc2ccn(CCCCCCCC#N)c2c1`: 85 to 86 °C.

Values taken from a melting point compilation (Tetko et al.; mined from patent text by program, amines drawn as free bases though some values may be those of a salt).
